Test system: splenocytes from the mice vaccinated with Top2αC RNA/DCs
Assay: IFN-γ ELISA of splenocytes stimulated with Top2αC-derived peptides
Format: cell-based, mouse
Conditions: 1 μg/ml peptides, three days, compared to other peptides
Description: The 5 Top2αC-derived peptides binding to MHC class I molecules (H-2 Kb) with a high score were selected by BIMAS and […], and in order to determine T lymphocyte epitopes of Top2αC, splenocytes from the mice vaccinated with Top2αC RNA/DCs were stimulated with Top2αC-derived peptides, and then IFN-γ production was determined by ELISA.
Splenocytes (2×10^5 cells/200 μl) of a mouse vaccinated with Top2αC RNA/DCs were incubated with 1 μg/ml peptides in a round-bottomed 96-well plate. Three days later, the plate was centrifuged and 100 μl of the supernatant was removed from each well. The level of IFN-γ was determined by ELISA (eBioscience, San Diego, USA).

## DSDEDFSGL [p1327, Top2αC-derived peptide, location 1327-1355 as printed]
  IFN-γ production: higher level

From patent US20110287442A1, “Tumor Antigen Protein, Gene, or Peptides from Topoisimerase 2 Alpha” (CATHOLIC UNIVERSITY INDUSTRY ACADEMIC COOPERATION FOUNDATION, priority 2010, published 2011)
